# Experimental data reported in ChEMBL document CHEMBL1938265, “Synthesis and biological evaluation of novel indolocarbazoles with anti-angiogenic activity” (Eur J Med Chem, 2012).
# Calls of active or inactive are those of the source. The calls are words filed in the database; no cut-off is given here.
# How the values were obtained:
# ST486 = test: Antiproliferative activity against human ST486 cells after 48 to 72 hrs by MTT assay; assay type: functional, cell-based
# DLD-1 [1] = test: Antiproliferative activity against human DLD1 cells after 48 to 72 hrs by MTT assay; assay type: functional, cell-based
# LoVo [2] = test: Antiproliferative activity against human LoVo cells after 48 to 72 hrs by MTT assay; assay type: functional, cell-based
# HUVEC [3] = test: Antiproliferative activity against human HUVEC after 48 to 72 hrs by MTT assay; assay type: functional, cell-based
# HUVEC [4] = test: Antiangiogenic activity against HUVEC assessed as inhibition of capillary tube formation at 20 uM after 24 hrs by Matrigel assay; assay type: functional, cell-based; details: Homo sapiens
# HUVEC [5] = test: Antiangiogenic activity against HUVEC assessed as inhibition of capillary tube formation at 20 uM after 48 hrs by Matrigel assay; assay type: functional, cell-based; details: Homo sapiens
# Mus musculus [6] = test: Toxicity in Lewis mouse allografted with mouse LL/2 cells assessed as change in body weight at 5 ug/ml, ip administered daily 24 hrs post implantation measured on day 18 (reference value: 22.7 +/- 0.2 g); assay type: organism-based; details: in vivo
# [7] = Antitumor activity against mouse LL/2 cells allografted in Lewis mouse assessed as change in tumor weight at 5 ug/ml, ip administered daily 24 hrs post implantation (reference value: 7.1 +/- 1.1 g); assay type: functional, Lewis lung carcinoma
# [8] = Antitumor activity against mouse LL/2 cells allografted in Lewis mouse assessed as decrease in lung metastasis number at 5 ug/ml, ip administered daily 24 hrs post implantation (reference value: 11.8 +/- 7.1 number); assay type: functional, Lewis lung carcinoma
# LoVo [9] = test: Selectivity ratio of IC50 for human LoVo cells to IC50 for HUVEC; assay type: functional
# DLD-1 [10] = test: Selectivity ratio of IC50 for human DLD1 cells to IC50 for HUVEC; assay type: functional
# Mus musculus [11] = test: Toxicity in Lewis mouse allografted with mouse LL/2 cells assessed as change in body weight at 4 mg/ml, ip administered daily 24 hrs post implantation measured on day 18 (reference value: 22.7 +/- 0.2 g); assay type: organism-based; details: in vivo
# [12] = Antitumor activity against mouse LL/2 cells allografted in Lewis mouse assessed as change in tumor weight at 4 mg/ml, ip administered daily 24 hrs post implantation (reference value: 7.1 +/- 1.1 g); assay type: functional, Lewis lung carcinoma
# [13] = Antitumor activity against mouse LL/2 cells allografted in Lewis mouse assessed as decrease in lung metastasis number at 4 mg/ml, ip administered daily 24 hrs post implantation (reference value: 11.8 +/- 7.1 number); assay type: functional, Lewis lung carcinoma
IC50 (DLD-1 [1]),IC50 (LoVo [2]),Structure (SMILES),IC50 (ST486),IC50 (HUVEC [3]),also measured
7000 nM,6000 nM,CNCCOCCn1c2ccccc2c2c3c(c4c5ccccc5[nH]c4c21)C(=O)N(CCN(C)C)C3=O,3000 nM,300 nM,
,,CN[C@@H]1C[C@H]2O[C@@](C)([C@@H]1OC)n1c3ccccc3c3c4c(c5c6ccccc6n2c5c31)C(=O)NC4 [STAUROSPORINE],7 nM,,
20000 nM,20000 nM,CN(C)CCOCCn1c2ccccc2c2c3c(c4c5ccccc5[nH]c4c21)C(=O)N(CCN(C)C)C3=O.Cl.Cl,4000 nM,100 nM,Activity (HUVEC [4]): Active; Activity (HUVEC [5]): Active; Activity (Mus musculus [6]): 28.5 g; Activity [7]: 7.6 g; Activity [8]: 9; Ratio IC50 (LoVo [9]): 200; Ratio IC50 (DLD-1 [10]): 200
2000 nM,4000 nM,O=C1NC(=O)c2c1c1c3ccccc3[nH]c1c1c2c2ccccc2n1CCOCCO,100 nM,10000 nM,
,,CN(C)CCOCCn1c2ccccc2c2c3c(c4c5ccccc5[nH]c4c21)C(=O)NC3=O,2000 nM,2000 nM,
20000 nM,300 nM,CN(C)CCN1C(=O)c2c(c3c4ccccc4n(CCOCCO)c3c3[nH]c4ccccc4c23)C1=O,3000 nM,100 nM,
,,Cc1ccc(C(=O)Nc2ccc(S(=O)(=O)O)c3cc(S(=O)(=O)O)cc(S(=O)(=O)O)c23)cc1NC(=O)c1cccc(NC(=O)Nc2cccc(C(=O)Nc3cc(C(=O)Nc4ccc(S(=O)(=O)O)c5cc(S(=O)(=O)O)cc(S(=O)(=O)O)c45)ccc3C)c2)c1 [SURAMIN],,,Activity (Mus musculus [11]): 25.5 g; Activity [12]: 5.9 g; Activity [13]: 5
3000 nM,500 nM,CN(C)CCN1C(=O)c2c(c3c4ccccc4[nH]c3c3[nH]c4ccccc4c23)C1=O,1000 nM,7000 nM,Activity (HUVEC [4]): Active; Activity (HUVEC [5]): Active; Activity (Mus musculus [6]): 27.29 g; Activity [7]: 7.3 g; Activity [8]: 9.4
